Measurements reported in paper PMC10999543, “Identification of kinase modulators as host-directed therapeutics against intracellular methicillin-resistant Staphylococcus aureus” (Frontiers in Cellular and Infection Microbiology, 2024).
Where two headings read alike, the source gives them in different places.

Columns and labels:
HeLa cells = assay: Compound screen by flow cytometry: HeLa cell count as surrogate readout of cell viability (z-scoreHeLa); assay type: cell-based, human; conditions: for cell count rep 1 / z-scoreHeLa rep 1: replicate 1; for cell count rep 2 / z-scoreHeLa rep 2: replicate 2; for cell count rep 3 / z-scoreHeLa rep 3: replicate 3; for z-scoreHeLa mean: mean of 3 replicates
In short: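 HeLa cells were infected with GFP-MRSA (mean MOI 6.8 ± 4.6) for 1 h, and extracellular bacteria were killed with 30 µg/ml gentamicin. Cells were then incubated overnight with kinase inhibitors in 5 µg/ml gentamicin, in triplicate against DMSO controls. Flow-cytometric cell count served as a viability surrogate, expressed as a plate z-score.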

intracellular MRSA = assay type: cell-based, Staphylococcus aureus; conditions: for %GFP+ rep 1 / z-scoreMRSA+ rep 1: replicate 1; for %GFP+ rep 2 / z-scoreMRSA+ rep 2: replicate 2; for %GFP+ rep 3 / z-scoreMRSA+ rep 3: replicate 3; for z-scoreMRSA+ mean: mean of 3 replicates
In short: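 HeLa, MRSA-GFP at MOI ~6.8, 1 h infection; gentamicin 30 µg/ml for 15 min; inhibitor plus gentamicin 5 µg/ml overnight, 37°C/5% CO2; triplicate plates; FACS %GFP+ and cell count; hit = z ≤ -2 MRSA+, z ≥ -3 count.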

[1] = PKIS compound screen raw data, HeLa cell count
[2] = PKIS compound screen, HeLa cell count
[3] = PKIS compound screen, Yes/No call on z-scoreHeLa
[4] = PKIS compound screen raw data, MRSA-infected HeLa cells
[5] = PKIS compound screen, MRSA-infected HeLa cells
[6] = PKIS compound screen, Yes/No call (effect without cell death)
[7] = PKIS compound screen, Yes/No call on z-scoreMRSA+
[8] = PKIS compound screen, Yes/No call
[9] = PKIS compounds raw data, HeLa cell count
[10] = PKIS compounds raw data, MRSA-infected HeLa cells
[11] = compound screen, HeLa cell count
[12] = Yes/No: effect without cell death
[13] = compound screen, MRSA-infected HeLa cells

| SMILES | cell count rep 1 (HeLa cells; [1]) | cell count rep 2 (HeLa cells; [1]) | cell count rep 3 (HeLa cells; [1]) | z-scoreHeLa mean (HeLa cells; [2]) | z-scoreHeLa rep 1 (HeLa cells; [2]) | z-scoreHeLa rep 2 (HeLa cells; [2]) | z-scoreHeLa rep 3 (HeLa cells; [2]) | cell death (HeLa cells; [3]) | %GFP+ rep 1 (intracellular MRSA; [4]) [%] | %GFP+ rep 2 (intracellular MRSA; [4]) [%] | %GFP+ rep 3 (intracellular MRSA; [4]) [%] | z-scoreMRSA+ mean (intracellular MRSA; [5]) | z-scoreMRSA+ rep 1 (intracellular MRSA; [5]) | hit (intracellular MRSA; [6]) | cell count rep 1 (HeLa cells; [9]) | cell count rep 2 (HeLa cells; [9]) | cell count rep 3 (HeLa cells; [9]) | %GFP+ rep 1 (intracellular MRSA; [10]) [%] | %GFP+ rep 2 (intracellular MRSA; [10]) [%] | %GFP+ rep 3 (intracellular MRSA; [10]) [%] | also measured |
| --- | --- | --- | --- | --- | --- | --- | --- | --- | --- | --- | --- | --- | --- | --- | --- | --- | --- | --- | --- | --- | --- |
| CCS(=O)(=O)c1ccc(OC)c(Nc2ncc(-c3cccc(-c4ccccc4F)c3)o2)c1 [GW678313X] | 18271 | 31542 | 48427 | 0.12 | -0.28 | -0.61 | 1.26 | No | 14.1 | 12.8 | 13.1 | -1.65 | -1.19 | No |  |  |  |  |  |  | z-scoreMRSA+ rep 2 (intracellular MRSA; [5]): -1.72; z-scoreMRSA+ rep 3 (intracellular MRSA; [5]): -2.04; effect (intracellular MRSA; [7]): No |
| c1ccc(Cc2nc3ccc(Nc4ncnc5ccccc45)cc3[nH]2)cc1 [GR269666A] |  |  |  |  |  |  |  |  |  |  |  |  |  | No | 4886 | 4795 | 7830 | 13.4 | 15.8 | 13.5 | cell death (HeLa cells; [8]): No; z-scoreHeLa mean (HeLa cells; PKIS compound screen): 0.30; z-scoreHeLa rep 1 (HeLa cells; PKIS compound screen): 0.10; z-scoreHeLa rep 2 (HeLa cells; PKIS compound screen): 0.40; z-scoreHeLa rep 3 (HeLa cells; PKIS compound screen): 0.42; effect (intracellular MRSA; [8]): No; z-scoreMRSA+ mean (intracellular MRSA; PKIS compound screen): 0.046; z-scoreMRSA+ rep 1 (intracellular MRSA; PKIS compound screen): 0.07; z-scoreMRSA+ rep 2 (intracellular MRSA; PKIS compound screen): 0.77; z-scoreMRSA+ rep 3 (intracellular MRSA; PKIS compound screen): -0.71 |
| Cn1cc(-c2ccc3c(c2)CCN3C(=O)Cc2cccc(F)c2)c2c(N)ncnc21 [GSK2603358A] |  |  |  |  |  |  |  |  |  |  |  |  |  | No | 5847 | 6919 | 8427 | 26.9 | 29.5 | 30.6 | cell death (HeLa cells; [8]): No; z-scoreHeLa mean (HeLa cells; PKIS compound screen): 0.76; z-scoreHeLa rep 1 (HeLa cells; PKIS compound screen): -0.12; z-scoreHeLa rep 2 (HeLa cells; PKIS compound screen): 0.60; z-scoreHeLa rep 3 (HeLa cells; PKIS compound screen): 1.79; effect (intracellular MRSA; [8]): No; z-scoreMRSA+ mean (intracellular MRSA; PKIS compound screen): 0.42; z-scoreMRSA+ rep 1 (intracellular MRSA; PKIS compound screen): -0.03; z-scoreMRSA+ rep 2 (intracellular MRSA; PKIS compound screen): 0.66; z-scoreMRSA+ rep 3 (intracellular MRSA; PKIS compound screen): 0.62 |
| CN(c1ccc2c(c1)nc(NCc1ccccc1)n2C)c1ccnc(Nc2ccc(CS(C)(=O)=O)cc2)n1 [GW811603A] |  |  |  |  |  |  |  |  |  |  |  |  |  |  | 3958 | 3626 | 4329 | 29.9 | 27.8 | 24.6 | cell death (HeLa cells; Yes/No call from z-scoreHeLa): No; z-scoreHeLa mean (HeLa cells; [11]): -0.46; z-scoreHeLa rep 1 (HeLa cells; [11]): -0.28; z-scoreHeLa rep 2 (HeLa cells; [11]): -0.52; z-scoreHeLa rep 3 (HeLa cells; [11]): -0.57; effect (intracellular MRSA; Yes/No call from z-scoreMRSA+): No; hit (intracellular MRSA; [12]): No; z-scoreMRSA+ mean (intracellular MRSA; [13]): 1.02; z-scoreMRSA+ rep 1 (intracellular MRSA; [13]): 1.08; z-scoreMRSA+ rep 2 (intracellular MRSA; [13]): 1.26; z-scoreMRSA+ rep 3 (intracellular MRSA; [13]): 0.72 |
| O=c1cc(N2CCOCC2)nc2n(Cc3cccc(Cl)c3)ccn12 [GSK2296823A] | 36512 | 34515 | 25382 |  |  |  |  |  | 13.9 | 14.9 | 15.7 |  |  |  |  |  |  |  |  |  | cell death (HeLa cells; Yes/No call from z-scoreHeLa): No; z-scoreHeLa mean (HeLa cells; [11]): 1.30; z-scoreHeLa rep 1 (HeLa cells; [11]): 1.07; z-scoreHeLa rep 2 (HeLa cells; [11]): 1.58; z-scoreHeLa rep 3 (HeLa cells; [11]): 1.26; effect (intracellular MRSA; Yes/No call from z-scoreMRSA+): No; hit (intracellular MRSA; [12]): No; z-scoreMRSA+ mean (intracellular MRSA; [13]): -1.35; z-scoreMRSA+ rep 1 (intracellular MRSA; [13]): -1.30; z-scoreMRSA+ rep 2 (intracellular MRSA; [13]): -1.23; z-scoreMRSA+ rep 3 (intracellular MRSA; [13]): -1.51 |
| COc1cccc(NC(=O)NC2CCN(c3ccnc(Nc4cc(OC)c(OC)c(OC)c4)n3)C2)c1 (stereo not drawn) [GSK1379763A] | 25281 | 24740 | 24420 | 0.05 | -0.83 | -0.09 | 1.07 | No | 13.0 | 15.3 | 16.3 | -1.34 | -1.54 | No |  |  |  |  |  |  | z-scoreMRSA+ rep 2 (intracellular MRSA; [5]): -1.12; z-scoreMRSA+ rep 3 (intracellular MRSA; [5]): -1.35; effect (intracellular MRSA; [7]): No |
| CN1CCC(n2cnc(-c3ccc(F)cc3)c2-c2ccnc(Nc3ccccc3)n2)CC1 [SB-236687] | 21592 | 24622 | 40771 | -0.54 | 0.22 | -1.90 | 0.04 | No | 10.0 | 12.2 | 12.7 | -2.18 | -2.49 | Yes |  |  |  |  |  |  | z-scoreMRSA+ rep 2 (intracellular MRSA; [5]): -1.90; z-scoreMRSA+ rep 3 (intracellular MRSA; [5]): -2.16; effect (intracellular MRSA; [7]): Yes |
| Cc1cccc(-c2nc(Nc3ccc4[nH]ncc4c3)c3ccccc3n2)n1 [GW857175X] |  |  |  |  |  |  |  |  |  |  |  |  |  |  | 2034 | 1268 | 3042 | 13.1 | 11.5 | 12.7 | cell death (HeLa cells; Yes/No call from z-scoreHeLa): No; z-scoreHeLa mean (HeLa cells; [11]): -2.21; z-scoreHeLa rep 1 (HeLa cells; [11]): -2.48; z-scoreHeLa rep 2 (HeLa cells; [11]): -2.27; z-scoreHeLa rep 3 (HeLa cells; [11]): -1.88; effect (intracellular MRSA; Yes/No call from z-scoreMRSA+): No; hit (intracellular MRSA; [12]): No; z-scoreMRSA+ mean (intracellular MRSA; [13]): -0.54; z-scoreMRSA+ rep 1 (intracellular MRSA; [13]): -0.0227; z-scoreMRSA+ rep 2 (intracellular MRSA; [13]): -0.67; z-scoreMRSA+ rep 3 (intracellular MRSA; [13]): -0.94 |
| CN1C(=O)C(Nc2ccccc2)=C(c2ccccc2)C1=O [SB-300079] |  |  |  |  |  |  |  |  |  |  |  |  |  | No | 5536 | 7057 | 6914 | 22.0 | 24.1 | 24.3 | cell death (HeLa cells; [8]): No; z-scoreHeLa mean (HeLa cells; PKIS compound screen): 0.41; z-scoreHeLa rep 1 (HeLa cells; PKIS compound screen): -0.31; z-scoreHeLa rep 2 (HeLa cells; PKIS compound screen): 0.70; z-scoreHeLa rep 3 (HeLa cells; PKIS compound screen): 0.83; effect (intracellular MRSA; [8]): No; z-scoreMRSA+ mean (intracellular MRSA; PKIS compound screen): -0.64; z-scoreMRSA+ rep 1 (intracellular MRSA; PKIS compound screen): -0.99; z-scoreMRSA+ rep 2 (intracellular MRSA; PKIS compound screen): -0.37; z-scoreMRSA+ rep 3 (intracellular MRSA; PKIS compound screen): -0.55 |
